Measurements as given in patent US9833497B2, “Human originated EGF domain proteins and use of the same” (CHENGDU SOURCEBIO LIMITED-LIABILITY COMPANY, priority 2013, dated 2017).

Experiments:
Format in all cases: cell-based
[1] = test system: E. coli BL21; experiment: MIC against Gram-negative bacteria: E. coli BL21; conditions: 5×10^5 CFU/mL; for MIC against E. coli BL21: 96-well plate, 37° C., 10 h; for MIC E. coli BL21: two-fold serial dilution
Method in brief: (§1)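 Read-out is absence of bacterial growth, with MIC set at the lowest recombinant protein concentration achieving it. Bacteria, pre-grown in LB to McFarland 0.5 and resuspended, were exposed at 5×10^5 CFU/mL to two-fold diluted human EGF domain proteins in triplicate at 37° C, 175 rpm.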

[2] = test system: Proteus vulgaris; experiment: MIC against Gram-negative bacteria: Proteus vulgaris; conditions: 5×10^5 CFU/mL; for MIC against P. vulgaris: 96-well plate, 37° C., 10 h; for MIC P. vulgaris: two-fold serial dilution
Method in brief: as §1

[3] = test system: Moraxella catarrhalis; experiment: MIC against Gram-negative bacteria: Moraxella catarrhalis; conditions: 5×10^5 CFU/mL; for MIC against M. catarrhalis: 96-well plate, 37° C., 10 h; for MIC M. catarrhalis: two-fold serial dilution
Method in brief: as §1

[4] = test system: Klebsiella pneumonia; experiment: MIC against Gram-negative bacteria: Klebsiella pneumonia; conditions: 5×10^5 CFU/mL; for MIC against K. pneumonia: 96-well plate, 37° C., 10 h; for MIC K. pneumonia: two-fold serial dilution
Method in brief: as §1

[5] = test system: E. coli DH5α; experiment: Antibacterial activity: MIC and growth curve against E. coli DH5α in 96-well plate; conditions: minimal inhibitory concentration against E. coli DH5α; 96-well plate, 5×10^5 CFU/mL, 37° C., judged after 8 h
Method in brief: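 Log-phase DH5α (OD600 about 0.5, 37° C, 185 rpm in LB) was pelleted, resuspended in fresh LB and seeded at 5×10^5 CFU/mL with recombinant protein at 50, 25 and 12.5 μg/mL (two-fold series), in triplicate. Plates were shaken at 175 rpm, 37° C, and OD600 was read every 30 min. MIC was the lowest concentration with no growth.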

[6] = test system: Aeromonas hydrophila; experiment: MIC against Gram-negative bacteria: Aeromonas hydrophila; conditions: 5×10^5 CFU/mL; for MIC against A. hydrophila: 96-well plate, 37° C., 10 h; for MIC A. hydrophila: two-fold serial dilution
Method in brief: as §1

[7] = test system: Enterobacter cloacae; experiment: MIC against Gram-negative bacteria: Enterobacter cloacae; conditions: 5×10^5 CFU/mL; for MIC against E. cloacae: 96-well plate, 37° C., 10 h; for MIC E. cloacae: two-fold serial dilution
Method in brief: as §1

[8] = test system: Citrobacter diversus; experiment: MIC against Gram-negative bacteria: Citrobacter diversus; conditions: 5×10^5 CFU/mL; for MIC against C. diversus: 96-well plate, 37° C., 10 h; for MIC C. diversus: two-fold serial dilution
Method in brief: as §1

[9] = test system: Pseudomonas aeruginosa; experiment: MIC against Gram-negative bacteria: Pseudomonas aeruginosa; conditions: 5×10^5 CFU/mL; for MIC against P. aeruginosa: 96-well plate, 37° C., 10 h; for MIC P. aeruginosa: two-fold serial dilution
Method in brief: as §1

[10] = test system: Serratia marcescens; experiment: MIC against Gram-negative bacteria: Serratia marcescens; conditions: 5×10^5 CFU/mL; for MIC against S. marcescens: 96-well plate, 37° C., 10 h; for MIC S. marcescens: two-fold serial dilution
Method in brief: as §1

[11] = test system: Proteus mirabilis; experiment: MIC against Gram-negative bacteria: Proteus mirabilis; conditions: 5×10^5 CFU/mL; for MIC against P. mirabilis: 96-well plate, 37° C., 10 h; for MIC P. mirabilis: two-fold serial dilution
Method in brief: as §1

For “PRT1267 (CNHGNGGCQHSCDDTADGPECSCHPQYKMHTDGRSC; listed as Homo sapiens)”, the “MIC against E. coli BL21” value ([1]; E. coli BL21) was 25 µg/mL, the “MIC against P. vulgaris” value ([2]; Proteus vulgaris) was 25 µg/mL and the “MIC against M. catarrhalis” value ([3]; Moraxella catarrhalis) was 25 µg/mL. For the same substance, the “MIC against K. pneumonia” value ([4]; Klebsiella pneumonia) was 25 µg/mL, the MIC [5] was 12.5 µg/mL and the “MIC against A. hydrophila” value ([6]; Aeromonas hydrophila) was 50 µg/mL. The “MIC against E. cloacae” value ([7]; Enterobacter cloacae) was 12.5 µg/mL, the “MIC against C. diversus” value ([8]; Citrobacter diversus) was 12.5 µg/mL and the “MIC against P. aeruginosa” value ([9]; Pseudomonas aeruginosa) was 50 µg/mL. The “MIC against S. marcescens” value ([10]; Serratia marcescens) was 12.5 µg/mL and the “MIC against P. mirabilis” value ([11]; Proteus mirabilis) was 50 µg/mL.

“PRT219 (DIDECRTSSYLCQYQCVNEPGKFSCMCPQGYQVVRSRTCQ; listed as Homo sapiens)” was tested, and the “MIC (μg/mL) E. coli BL21” value ([1]; E. coli BL21, 10 h cultivation at 37° C.) was 25 µg/mL, the “MIC (μg/mL) P. vulgaris” value ([2]; P. vulgaris, 10 h cultivation at 37° C.) was 25 µg/mL and the “MIC (μg/mL) M. catarrhalis” value ([3]; M. catarrhalis, 10 h cultivation at 37° C.) was 12.5 µg/mL. For the same substance, the “MIC (μg/mL) K. pneumonia” value ([4]; K. pneumonia, 10 h cultivation at 37° C.) was 12.5 µg/mL, the MIC [5] was 12.5 µg/mL and the “MIC (μg/mL) A. hydrophila” value ([6]; A. hydrophila, 10 h cultivation at 37° C.) was 12.5 µg/mL. The “MIC (μg/mL) E. cloacae” value ([7]; E. cloacae, 10 h cultivation at 37° C.) was 12.5 µg/mL, the “MIC (μg/mL) C. diversus” value ([8]; C. diversus, 10 h cultivation at 37° C.) was 12.5 µg/mL and the “MIC (μg/mL) P. aeruginosa” value ([9]; P. aeruginosa, 10 h cultivation at 37° C.) was 50 µg/mL. For the same substance, the “MIC (μg/mL) S. marcescens” value ([10]; S. marcescens, 10 h cultivation at 37° C.) was 12.5 µg/mL and the “MIC (μg/mL) P. mirabilis” value ([11]; P. mirabilis, 10 h cultivation at 37° C.) was 12.5 µg/mL.

For “PRT1268 (CAVNNGGCDRTCKDTSTGVHCSCPVGFTLQLDGKTC; listed as Homo sapiens)”, the “MIC against E. coli BL21” value ([1]; E. coli BL21) was 12.5 µg/mL, the “MIC against P. vulgaris” value ([2]; Proteus vulgaris) was 25 µg/mL and the “MIC against M. catarrhalis” value ([3]; Moraxella catarrhalis) was 50 µg/mL. The “MIC against K. pneumonia” value ([4]; Klebsiella pneumonia) was 12.5 µg/mL, the MIC [5] was 50 µg/mL and the “MIC against A. hydrophila” value ([6]; Aeromonas hydrophila) was 50 µg/mL. For the same substance, the “MIC against E. cloacae” value ([7]; Enterobacter cloacae) was 25 µg/mL, the “MIC against C. diversus” value ([8]; Citrobacter diversus) was 12.5 µg/mL and the “MIC against P. aeruginosa” value ([9]; Pseudomonas aeruginosa) was 50 µg/mL. The “MIC against S. marcescens” value ([10]; Serratia marcescens) was 50 µg/mL and the “MIC against P. mirabilis” value ([11]; Proteus mirabilis) was 12.5 µg/mL.

“PRT497 (CACPHSPPASFSPTCVLEGDHDFRCDACLLGYEGKHCERCSSSYYGNPQTPGGSCQK; listed as Homo sapiens)” was tested, and the “MIC against E. coli BL21” value [1] was 25 µg/mL, the “MIC against P. vulgaris” value [2] was 12.5 µg/mL and the “MIC against M. catarrhalis” value [3] was 12.5 µg/mL. For the same substance, the “MIC against K. pneumonia” value [4] was 12.5 µg/mL, the MIC [5] was 12.5 µg/mL and the “MIC against A. hydrophila” value [6] was 50 µg/mL. For the same substance, the “MIC against E. cloacae” value [7] was 25 µg/mL, the “MIC against C. diversus” value [8] was 25 µg/mL and the “MIC against P. aeruginosa” value [9] was 50 µg/mL. For the same substance, the “MIC against S. marcescens” value [10] was 50 µg/mL and the “MIC against P. mirabilis” value [11] was 50 µg/mL.

In the case of “PRT1083 (GTNVCAVANGGCQQLCLYRGRGQRACACAHGMLAEDGASCR; listed as Homo sapiens)”, the “MIC E. coli BL21” value ([1]; 10 h cultivation at 37° C.) is reported as 12.5 µg/mL, the “MIC P. vulgaris” value ([2]; 10 h cultivation at 37° C.) is reported as 50 µg/mL and the “MIC M. catarrhalis” value ([3]; 10 h cultivation at 37° C.) is reported as 50 µg/mL. For the same substance, the “MIC K. pneumonia” value ([4]; 10 h cultivation at 37° C.) was 50 µg/mL, the MIC [5] was 50 µg/mL and the “MIC A. hydrophila” value ([6]; 10 h cultivation at 37° C.) was 25 µg/mL. The “MIC E. cloacae” value ([7]; 10 h cultivation at 37° C.) was 50 µg/mL, the “MIC C. diversus” value ([8]; 10 h cultivation at 37° C.) was 12.5 µg/mL and the “MIC P. aeruginosa” value ([9]; 10 h cultivation at 37° C.) was 50 µg/mL. For the same substance, the “MIC S. marcescens” value ([10]; 10 h cultivation at 37° C.) was 25 µg/mL and the “MIC P. mirabilis” value ([11]; 10 h cultivation at 37° C.) was 25 µg/mL.

“PRT1183 (NIDDCLGQPCRNGGTCIDEVDAFRCFCPSGWEGELCD; listed as Homo sapiens)” was tested, and the “MIC E. coli BL21” value ([1]; 10 h cultivation at 37° C.) was 50 µg/mL, the “MIC P. vulgaris” value ([2]; 10 h cultivation at 37° C.) was 25 µg/mL and the “MIC M. catarrhalis” value ([3]; 10 h cultivation at 37° C.) was 25 µg/mL. The “MIC K. pneumonia” value ([4]; 10 h cultivation at 37° C.) was 12.5 µg/mL, the MIC [5] was 25 µg/mL and the “MIC A. hydrophila” value ([6]; 10 h cultivation at 37° C.) was 25 µg/mL. For the same substance, the “MIC E. cloacae” value ([7]; 10 h cultivation at 37° C.) was 50 µg/mL, the “MIC C. diversus” value ([8]; 10 h cultivation at 37° C.) was 12.5 µg/mL and the “MIC P. aeruginosa” value ([9]; 10 h cultivation at 37° C.) was 25 µg/mL. The “MIC S. marcescens” value ([10]; 10 h cultivation at 37° C.) was 12.5 µg/mL and the “MIC P. mirabilis” value ([11]; 10 h cultivation at 37° C.) was 50 µg/mL.
